Measured values published in PMC3989846 (Malaria Journal, 2014).

Assays:
[1] = parameters: method as in PMID 15378438, PMID 10479159; settings: cited from earlier work
[2] = system: P. berghei ANKA blood stage parasitaemia; test: Blood stage infection by flow cytometry (FCM) and causal prophylaxis outcome after sporozoite challenge; format: in vivo, Plasmodium berghei; settings: for Effects: CP = causal prophylaxis; for Blood Infection by FCM: infected/challenged mice
Protocol: Novel and control anti-malarials were administered orally on days -1, 0, and 1 with respect to sporozoite inoculation. […] Additionally, blood stage infections were measured by flow cytometry. Positive and negative controls were used for the IVIS calibration in each test.
Causal prophylactic effects and delay in onset of parasitaemia in animals treated with TQ and PQ (Figure 1) were assessed in these experiments, which included a positive control, 4-methyl-PQ. All dosing was conducted based on the body weight at the time of preparation of the dosing solution. […] Each animal received 0.1 - 0.2 ml of the oral solutions, delivered via an intragastric feeder (18-gauge) to the designated recipient. Stock solutions of test compounds were prepared fresh daily by grinding the needed amount of drug in cold (4°C) 0.5% (w/v) hydroxyethyl cellulose and 0.2% (v/v) Tween-80 (0.5% HECT) and diluting the resulting solution at variable concentrations. C57BL/6 albino mice were challenged intravenously with 50,000 luciferase-expressing P. berghei sporozoites extracted from the salivary glands of heavily infected An. stephensi mosquitoes. […] At day 5–30 after infection, the same mice were analysed for blood stage infection by determination of the course of parasitaemia of tail blood by flow cytometry using an FC500 flow cytometer (Beckman-Coulter Co. CA).
At day 5–30 after infection, the same mice were analysed for blood stage infections by quantitation of malaria parasites by flow cytometry (FCM). All FCM analyses were carried out with a FC500 MPL flow cytometer (Beckman Coulter, Fullerton, CA), which conducts five-colour analysis from either single or dual laser excitation. Infected erythrocytes, uninfected erythrocytes, and leukocytes were gated on logarithmic forward/side dot plots. Cells were analysed at an average rate of 2,000-3,000 erythrocytes/s. Filters were placed before the green (FL-1) and red (FL-2) photomultiplier tubes (PMTs) such that the green PMT registered fluorescence emission between 520 and 555 nm, and the red PMT measured emission greater than 580 nm.
A drop of blood (3 μL) from the mouse tail was collected directly into 0.3 ml of 1% heparinized isotonic buffer (PBS saline). In this study, 1 ml 0.04% of glutaraldehyde was used for fixation and the samples were then incubated at 4°C for 60 minutes. The cells were centrifuged at 450 × g for 5 min. […] After centrifugation, the permeabilized cells were re-suspended in 0.5 ml of RNAse at 1 mg/ml concentrations and incubated for at least 2 hours at 37°C to ensure complete digestion of reticulocytes. Plasmodium berghei infection in mice results in anaemia which then results in reticulocytosis. Therefore, high RNAse concentrations for digesting large amounts of reticulocytes RNA were required for assessment of parasitaemia in this mouse model.
In the in vivo imaging experiments, causal prophylaxis activity, sporontocidal activity, parasite clearance, causal cure, delays in patency, and time to recrudescence were calculated as described previously. The minimum curative dose (MCD100) in 100% animals was defined as the lowest dose, which cured all animals (>5 animals) in a group at any time during the first 30 days of the follow-up period. […] Means and standard deviations of photon measurement were calculated. Blood stage infection was defined as two positive blood samples by flow cytometry, taken daily apart. The negative blood samples were monitored until day 15 after inoculation. Coefficients of variation were calculated as a percentage by dividing the standard deviation by the mean value.

[3] = 1.25 mg/kg oral, 3 days (-1, 0, 1)
[4] = 5 mg/kg oral, 3 days (-1, 0, 1)
[5] = 5 mg/kg single oral dose on day 0
[6] = 5 mg/kg single oral dose on day -1
[7] = 10 mg/kg oral, 3 days (-1, 0, 1)
[8] = 15 mg/kg oral, 3 days (-1, 0, 1)
[9] = 20 mg/kg oral, 3 days (-1, 0, 1)
[10] = 25 mg/kg oral, 3 days (-1, 0, 1)
[11] = 25 mg/kg single oral dose on day 0
[12] = 25 mg/kg single oral dose on day -1

COc1cc(C)c2c(Oc3cccc(C(F)(F)F)c3)c(OC)cc(NC(C)CCCN)c2n1 (stereo not drawn) [Tafenoquine, tafenoquine]
half-life [1]: approximately 14 days | Number of C57BL/albino mice Causal prophylaxis [2, 3]: 1/5 | Number of C57BL/albino mice Protected completely [2, 3]: 1 | Effects [2, 3]: Suppression | Blood Infection by FCM [2, 3]: 4/5 | Number of C57BL/albino mice Causal prophylaxis [2, 4]: 13/13 | Number of C57BL/albino mice Protected completely [2, 4]: 13 | Effects [2, 4]: Full CP | Blood Infection by FCM [2, 4]: 0/13 | Number of C57BL/albino mice Causal prophylaxis [2, 5]: 1/5 | Number of C57BL/albino mice Protected completely [2, 5]: 1 | Effects [2, 5]: Partial CP | Blood Infection by FCM [2, 5]: 4/5 | Number of C57BL/albino mice Causal prophylaxis [2, 6]: 10/10 | Number of C57BL/albino mice Protected completely [2, 6]: 10 | Effects [2, 6]: Full CP | Blood Infection by FCM [2, 6]: 0/10 | Blood Infection by FCM ([2]; 5 mg/kg single oral dose on day -1, listed as TQ): no blood stage parasitaemia | Number of C57BL/albino mice Causal prophylaxis [2, 7]: 5/5 | Number of C57BL/albino mice Protected completely [2, 7]: 5 | Effects [2, 7]: Full CP | Blood Infection by FCM [2, 7]: 0/5 | Number of C57BL/albino mice Causal prophylaxis ([2]; […] oral, 3 days (-1, 0, 1)): 3/5 | Number of C57BL/albino mice Protected completely ([2]; […] oral, 3 days (-1, 0, 1)): 3 | minimal curative single oral dose ([2]; single oral dose, causal prophylaxis in mice): 5 mg/kg | causal activity ([2]; three oral doses: TQ 5 mg/kg, PQ 25 mg/kg): 100%

COc1cc(NC(C)CCCN)c2ncccc2c1 (stereo not drawn) [Primaquine, primaquine]
Effects [2, 4]: Suppression | Blood Infection by FCM [2, 4]: 5/5 | Effects [2, 7]: Partial CP | Blood Infection by FCM [2, 7]: 5/10 | Effects [2, 8]: Partial CP | Blood Infection by FCM [2, 8]: 4/20 | Effects [2, 9]: Partial CP | Blood Infection by FCM [2, 9]: 1/10 | Delay in patency (days after onset in controls) ([2]; 20 mg/kg oral, 3 days (-1, 0, 1), per infected mouse): 6 days | Effects [2, 10]: Full CP | Blood Infection by FCM [2, 10]: 0/10 | Effects [2, 11]: Suppression | Blood Infection by FCM [2, 11]: 5/5 | Effects [2, 12]: Suppression | Blood Infection by FCM [2, 12]: 5/5 | blood stage parasitaemia 5–30 days after infection ([2]; single oral dose 25 mg/kg): severe parasitaemia
